# Results as given in paper PMC7536268, “Increased Antimicrobial Activity of Colistin in Combination With Gamithromycin Against Pasteurella multocida in a Neutropenic Murine Lung Infection Model” (Frontiers in Microbiology, 2020).
# Where a SMILES comes first, the peptide text is derived from it. Bridges are numbered along the chain shown (N, C = ends). [ ]: non-standard residue; d: D form. The star is where a group is joined. X1 = CC[C@H](C)CCCCC(=O)*; Dab = NCC[C@H](N)C(=O)O
# Legend:
# [1] = PK in plasma and lung tissue of neutropenic lung-infected mice; settings: for AUC(0-t): Plasma AUClast; for Cmax: Plasma Cmax
# Description: (§1) Five-week-old specific-pathogen-free female Institute of Cancer Research (ICR) mice weighing 20–22 g obtained from the Laboratory Animal Center of the Southern Medical University (SCXK 2016-0041, Guangzhou) were used in this experiment. Animals were maintained in the Laboratory Animal Center of the South China Agricultural University (SYXK 2014-0136, Guangzhou) in accordance with the National Standards for Laboratory Animals in China (GB 14925–2010). Neutropenia was generated by intraperitoneal injection of cyclophosphamide [TCI (Shanghai) Development Co., Ltd., Shanghai, China) 4 days before the 150-mg/kg dose and 1 day before the 100-mg/kg dose prior to lung infection ([Vogelman et al., 1988]). Three strains, namely, D18, T5, and WJ11, were incubated in MH II broth. Experimental mice were anesthetized via inhalation of isoflurane and then were hung on an adjustable-angled bracket by hooking their teeth. Endotracheal intubation was performed by importing 50 μL of a logarithmic-phase bacterial suspension (10^8–10^9 CFU/mL) into the lung through the larynges rimae using a preinserted tracheal tube ([Zhou et al., 2018]). All experimental protocols were approved by the Committee on the Ethics of Animals of South China Agricultural University.
# Pharmacokinetics analysis of colistin (2.5 and 5 mg/kg), gamithromycin (1.5, 3, 6, 12, and 24 mg/kg) alone and in combination (2.5 mg/kg colistin, 3 mg/kg gamithromycin) was performed in 176 neutropenic lung-infected ICR mice following subcutaneous administration (SC). Plasma and lung tissue samples were withdrawn at the specified time point (four mice at each time point).
# The concentration of colistin and gamithromycin in plasma and lung tissue was measured using a previously reported method ([Ma et al., 2008]; [Huang et al., 2010]; [Fu et al., 2018]). The limit of quantification for both colistin and gamithromycin was 0.01 mg/L in plasma and 0.2 μg/g in lung tissue. Recovery of colistin and gamithromycin in plasma and lung ranged between 88.2 and 113.1%. All inter- and intra-assay coefficients of variation were <10%. PK parameters in plasma and lung samples were estimated using a non-compartmental analysis method with WinNonlin software version 5.2.1 (Pharsight, St Louis, MO, United States).
# [2] = tested on: Pasteurella multocida strains (D18, T5, and WJ11); experiment: In vitro postantibiotic effect (PAE); format: cell-based; settings: 1 h exposure
# Method: For determination of the postantibiotic effect (PAE) of colistin, gamithromycin was tested on D18, T5, and WJ11 isolates alone and in combination with colistin, and a 1 × 10^8 CFU/mL inoculum of each isolate was used after overnight incubation in MH II broth. A 0.5-mL sample of the inoculum and 0.5 mL of colistin or gamithromycin alone at 1 × or 4 × MIC, was added to 4 mL of fresh broth and incubated in a 37°C water bath for 1 h. Meanwhile, the same operation was performed for combinations of colistin at 0.25–0.5 mg/L and gamithromycin at 0.125–0.25 mg/L. Controls without drugs were included. Each inoculum was diluted 1000-fold after incubation for 1 h, and this was the starting point for PAE testing (0 h). Aliquots of 0.1 mL were withdrawn to count the bacterial burden as described above in time-kill tests at 0, 1, 2, 4, and 6 h. PAE was calculated using the equation: PAE = T – C, where T and C represent the time taken for drug-exposed (T) and control (C) cultures to increase by 1 log10 after drugs were removed ([Mackenzie and Gould, 1993]).
# [3] = tested on: Pasteurella multocida strains (D18, T5, and WJ11); experiment: In vivo pharmacodynamics, neutropenic murine pneumonia model
# Description: as §1
# [4] = tested on: Pasteurella multocida strains; experiment: Checkerboard combination susceptibility testing (MIC in combination, FIC index); format: cell-based; settings: colistin combined with gamithromycin, 37°C 24 h
# Method: The susceptibility of the selected P. multocida isolates and the quality control isolate (ATCC 25922) to colistin, gamithromycin, cefquinome, enrofloxacin, tilmicosin, tylosin tartrate, and florfenicol alone was determined using the microdilution method in broth (conducted in triplicate) according to the guiding principles of the CLSI. Based on the action mechanism of each drug, the antimicrobial activity of colistin or cefquinome (drug A) in combination with gamithromycin, enrofloxacin, tilmicosin, tylosin tartrate, or florfenicol (drug B) was determined with the checkerboard method, according to the minimal inhibitory concentration (MIC) of each drug. Briefly, 50 μL of MH II broth was added to each well, and 50 μL of the indicated concentration of colistin or cefquinome was added into the first well of each line. This was followed by multiproportion dilution. Next, 50-μL samples of different concentrations of gamithromycin or the other drugs mentioned above were added to the dilution medium, and a 100 μL inoculum with a cell density of ∼1 × 10^6 colony-forming units (CFU)/mL was added to each well. The plates were then incubated at 37°C for 24 h. According to the EUCAST definitive document E.Def 1.2 ([Mccullough, 2010]), the fractional inhibitory concentration (FIC) index for combined administrations was defined as the sum of the FIC of drug A and the FIC of drug B, where FIC is the MIC of the drug combined with other drugs, divided by the MIC of the drug alone.
# [5] = tested on: Pasteurella multocida strains (D18, T5, and WJ11); experiment: Mutant prevention concentration (MPC); format: cell-based; settings: drug alone, agar, 72 h, 37°C
# Method: The bacteria-containing broth was centrifuged at 3500 g for 15 min and resuspended in fresh MH II broth to obtain a solution containing 3 × 10^10 CFU/mL of P. multocida. The agar plates were produced by adding different concentrations of colistin and gamithromycin alone or in combination into the Mueller-Hinton agar medium supplemented with sterile defibrinated sheep blood. Aliquots of 100-μL inoculum were plated on four agar plates containing the same concentration of drug(s). Mutant prevention concentration (MPC) was defined as the lowest concentration that prevented the growth of bacteria after 72 h of incubation at 37°C.
# [6] = colistin 2.5 mg/kg SC alone, neutropenic lung-infected mice, lung tissue
# [7] = colistin 5 mg/kg SC alone, neutropenic lung-infected mice, lung tissue
# [8] = female, ICR, mouse, in vivo, sc, 2.5 mg/kg, colistin 2.5 mg/kg SC alone, neutropenic lung-infected mice, total plasma
# [9] = female, ICR, mouse, in vivo, sc, 2.5 mg/kg, given in combination SC (2.5 mg/kg colistin, 3 mg/kg gamithromycin), total plasma
# [10] = female, ICR, mouse, in vivo, sc, 5 mg/kg, colistin 5 mg/kg SC alone, neutropenic lung-infected mice, total plasma
# [11] = given in combination SC (2.5 mg/kg colistin, 3 mg/kg gamithromycin), lung tissue
# [12] = strain D18, 1 × MIC (colistin 32 mg/L, gamithromycin 0.5 mg/L)
# [13] = strain T5, 1 × MIC (colistin 32 mg/L, gamithromycin 0.5 mg/L)
# [14] = strain WJ11, 1 × MIC (colistin 1 mg/L, gamithromycin 0.5 mg/L)
smiles,measurement,setting,value
CC[C@H](C)CCCCC(=O)N[C@@H](CCN)C(=O)N[C@H](C(=O)N[C@@H](CCN)C(=O)N[C@H]1CCNC(=O)[C@H]([C@@H](C)O)NC(=O)[C@H](CCN)NC(=O)[C@H](CCN)NC(=O)[C@H](CC(C)C)NC(=O)[C@@H](CC(C)C)NC(=O)[C@H](CCN)NC1=O)[C@@H](C)O [Colistin] (X1-[Dab]T[Dab][Dab][Dab][dL]L[Dab][Dab]T; lactam 4-C),Lung AUClast,[1]; [6],5.22 mg⋅h/kg
same,Lung Cmax,[1]; [6],3.37 mg/kg
same,Lung T1/2,[1]; [6],76.8 min
same,Lung Tmax,[1]; [6],30 min
same,Plasma Tmax,"[1]; colistin 2.5 mg/kg SC alone, neutropenic lung-infected mice, total plasma, non-compartmental",30 min
same,Lung AUClast,[1]; [7],12.20 mg⋅h/kg
same,Lung Cmax,[1]; [7],5.54 mg/kg
same,Lung T1/2,[1]; [7],103 min
same,Lung Tmax,[1]; [7],45 min
same,AUC(0-t),[1]; [8],3510 ng·h/mL
same,AUC(0-t),[1]; [9],3880 ng·h/mL
same,Cmax,[1]; [8],3140 ng/mL
same,Cmax,[1]; [9],3330 ng/mL
same,half-life,"[1]; female, ICR, mouse, in vivo, sc, 2.5 mg/kg, Plasma T1/2, colistin 2.5 mg/kg SC alone, neutropenic lung-infected mice, total plasma",40.2 min
same,half-life,"[1]; female, ICR, mouse, in vivo, sc, 2.5 mg/kg, Plasma T1/2, given in combination SC (2.5 mg/kg colistin, 3 mg/kg gamithromycin), total plasma",36.6 min
same,Tmax,"[1]; female, ICR, mouse, in vivo, sc, 5 mg/kg",45 min
same,AUC(0-t),[1]; [10],10500 ng·h/mL
same,Cmax,[1]; [10],6330 ng/mL
same,half-life,"[1]; female, ICR, mouse, in vivo, sc, 5 mg/kg, Plasma T1/2, colistin 5 mg/kg SC alone, neutropenic lung-infected mice, total plasma",49.8 min
same,Lung AUClast,[1]; [11],5.10 mg⋅h/kg
same,Lung Cmax,[1]; [11],2.94 mg/kg
same,Lung T1/2,[1]; [11],69.6 min
same,Lung Tmax,[1]; [11],30 min
same,PAE,[2]; [12],0.98 h
same,PAE,"[2]; strain D18, 4 × MIC",3.79 h
same,PAE,[2]; [13],0.29 h
same,PAE,"[2]; strain T5, 4 × MIC",2.83 h
same,PAE,[2]; [14],0.96 h
same,PAE,"[2]; strain WJ11, 4 × MIC",2.34 h
same,in vivo PD outcome,"[3]; colistin alone 2.5 or 5 mg/kg SC every 12 h, all three isolates, 24 h",failure to inhibit growth of bacteria
same,MIC (in combination),[4]; strain CVCC 444,0.125 µg/mL
same,MIC (in combination),[4]; strain D18,0.25 µg/mL
same,MIC (in combination),[4]; strain PmP2 (pig),0.125 µg/mL
same,MIC (in combination),[4]; strain PmP17 (pig),0.125 µg/mL
same,MIC (in combination),[4]; strain T5,0.125 µg/mL
same,MIC (in combination),[4]; strain WJ11,0.125 µg/mL
same,MIC (in combination),[4]; strain WN71,0.0625 µg/mL
same,MIC (in combination),[4]; strain WW81,0.5 µg/mL
same,MIC (in combination),[4]; strain XX12,0.125 µg/mL
same,MPC,[5]; strain D18,128 mg/L
same,MPC,[5]; strain T5,128 mg/L
same,MPC,[5]; strain WJ11,64 mg/L
CCCN1C[C@H](C)[C@@H](O)[C@](C)(O)[C@@H](CC)OC(=O)[C@H](C)[C@@H](O[C@H]2C[C@@](C)(OC)[C@@H](O)[C@H](C)O2)[C@H](C)[C@@H](O[C@@H]2O[C@H](C)C[C@H](N(C)C)[C@H]2O)[C@](C)(O)C[C@H]1C [Gamithromycin],time of Cmax in lung tissue,"[1]; mouse, in vivo",0.25 to 1 h
same,Lung T1/2,"[1]; mouse, in vivo, SD",1355 ± 111 min
same,Lung Tmax,"[1]; mouse, in vivo, SD",39 ± 17.4 min
same,Plasma T1/2,"[1]; mouse, in vivo, SD",731.4 ± 19.8 min
same,Plasma Tmax,"[1]; mouse, in vivo, SD",27 ± 12.6 min
same,PAE,[2]; [12],0.21 h
same,PAE,"[2]; strain D18, 4 × MIC",0.51 h
same,PAE,[2]; [13],0.54 h
same,PAE,"[2]; strain T5, 4 × MIC",1.83 h
same,PAE,[2]; [14],0.59 h
same,PAE,"[2]; strain WJ11, 4 × MIC",1.16 h
same,dose required for effective treatment,[3]; gamithromycin monotherapy every 12 h,≥ 24 mg/kg
same,MIC (in combination),[4]; strain CVCC 444,0.25 µg/mL
same,MIC (in combination),[4]; strain D18,0.0625 µg/mL
same,MIC (in combination),[4]; strain PmP2 (pig),0.125 µg/mL
same,MIC (in combination),[4]; strain PmP17 (pig),0.0625 µg/mL
same,MIC (in combination),[4]; strain T5,0.125 µg/mL
same,MIC (in combination),[4]; strain WJ11,0.25 µg/mL
same,MIC (in combination),[4]; strain WN71,0.25 µg/mL
same,MIC (in combination),[4]; strain WW81,0.25 µg/mL
same,MIC (in combination),[4]; strain XX12,0.0625 µg/mL
same,MPC,[5]; strain D18,1 mg/L
same,MPC,[5]; strain T5,1 mg/L
same,MPC,[5]; strain WJ11,1 mg/L
